Source: US20260315604A1, “OTUB1 Small-Molecule Binders and OTUB1-recruiting Deubiquitinase-targeting Chimeras (DUBTACs)” (ICAHN SCHOOL OF MEDICINE AT MOUNT SINAI, priority 2023, published 2026)

Molecular target: T1, Human OTUB1 wild-type (Homo sapiens, UniProt Q96FW1)
T1 construct: His tag (N); made in house; host or cells: E. coli BL21-CodonPlus (DE3)-RIPIL
Assay: Covalent modification of OTUB1 (adduct formation), mass spectrometry-based assay (OTUB1 covalent binders; selected CFTR or cGAS based bivalent compounds)
Type: binding
Details: covalent adduct formation with OTUB1 protein
How it was run: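 His-tagged human OTUB1 (10 μM), E. coli-expressed, incubated with compound (2500 μM) in 50 mM Tris-HCl pH 7.5, 150 mM NaCl, 0.5 mM TCEP for 1 h at room temperature. Adduct detected by intact-protein LC/ESI-TOF mass spectrometry after buffer exchange; duplicates.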

T1 sequence (Q96FW1 whole entry): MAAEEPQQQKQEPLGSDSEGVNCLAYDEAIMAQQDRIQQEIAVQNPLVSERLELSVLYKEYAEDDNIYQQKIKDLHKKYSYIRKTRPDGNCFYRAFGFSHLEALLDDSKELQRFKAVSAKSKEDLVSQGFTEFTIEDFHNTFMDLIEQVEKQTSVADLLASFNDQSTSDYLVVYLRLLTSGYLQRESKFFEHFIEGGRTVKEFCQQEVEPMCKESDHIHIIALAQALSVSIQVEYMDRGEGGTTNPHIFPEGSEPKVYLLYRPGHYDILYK

Structure (SMILES) | % of OTUB1 modified [%]
Cc1ccc(C(=O)NC2CN(C(=O)/C=C/CN(C)C)C2)s1 [XS190-9, (E)-N-(1-(4-(dimethylamino)but-2-enoyl)azetidin-3-yl)-5-methylthiophene-2-carboxamide] | 38
CC(=O)NCc1ccc(C(=O)N2CC3CC(C2)N3C(=O)/C=C/CN(C)C)s1 [XS190-130, (E)-N-((5-(6-(4-(dimethylamino)but-2-enoyl)-3,6-diazabicyclo[3.1.1]heptane-3-carbonyl)thiophen-2-yl)methyl)acetamide] | 53
Cc1ccc(C(=O)N2CC3CC(C2)N3C(=O)C#CC(C)(C)N(C)C)s1 [XS209-75, 4-(dimethylamino)-4-methyl-1-(3-(5-methylthiophene-2-carbonyl)-3,6-diazabicyclo[3.1.1]heptan-6-yl)pent-2-yn-1-one] | 75
COCC#Cc1ccc(C(=O)N2CC3CC(C2)N3C(=O)/C=C/CN(C)C)s1 [XS197-93, (E)-4-(dimethylamino)-1-(3-(5-(3-methoxyprop-1-yn-1-yl)thiophene-2-carbonyl)-3,6-diazabicyclo[3.1.1]heptan-6-yl)but-2-en-1-one] | 80
CN(C)C/C=C/C(=O)N1CC2(CC(C(=O)Nc3cc4ccccc4s3)C2)C1 [XS185-91, (E)-N-(benzo[b]thiophen-2-yl)-2-(4-(dimethylamino)but-2-enoyl)-2-azaspiro[3.3]heptane-6-carboxamide] | 25
Cc1cccc(N2CCN(C(=O)CCl)CC2=O)n1 [XS165-120, 4-(2-chloroacetyl)-1-(6-methylpyridin-2-yl)piperazin-2-one] | 100
Cc1cccc(N2CC3CCC(C2)N3C(=O)CCl)n1 [XS165-121, 2-chloro-1-(3-(6-methylpyridin-2-yl)-3,8-diazabicyclo[3.2.1]octan-8-yl)ethan-1-one] | 100
C=CC(=O)N1CCN(c2cnc(C)s2)C(=O)C1 [XS154-184, 4-acryloyl-1-(2-methylthiazol-5-yl)piperazin-2-one] | <5
CC(=O)N1CCc2sc(C(=O)N3CC4CC(C3)N4C(=O)/C=C/CN(C)C)cc2C1 [XS190-69, (E)-1-(3-(5-acetyl-4,5,6,7-tetrahydrothieno[3,2-c]pyridine-2-carbonyl)-3,6-diazabicyclo[3.1.1]heptan-6-yl)-4-(dimethylamino)but-2-en-1-one] | 88
CC(=O)OCC#Cc1ccc(C(=O)N2CC3CC(C2)N3C(=O)/C=C/CN(C)C)s1 [XS197-96, (E)-3-(5-(6-(4-(dimethylamino)but-2-enoyl)-3,6-diazabicyclo[3.1.1]heptane-3-carbonyl)thiophen-2-yl)prop-2-yn-1-yl acetate] | 45
Cc1ccc(NC(=O)C2CN(C(=O)C#CC(C)(C)N(C)C)C2)s1 [XS224-111, 1-(4-(dimethylamino)-4-methylpent-2-ynoyl)-N-(5-methylthiophen-2-yl)azetidine-3-carboxamide] | 53
Cc1csc(NC(=O)C2CCN(C(=O)/C=C/CN(C)C)CC2)c1 [XS175-173, (E)-1-(4-(dimethylamino)but-2-enoyl)-N-(4-methylthiophen-2-yl)piperidine-4-carboxamide] | 3

Continued, values first:

% of OTUB1 modified [%] | Structure (SMILES)
20 | Cc1ccc(C(=O)N2CC3CCC(C2)N3C(=O)/C=C/CN(C)C)s1 [XS185-70, (E)-4-(dimethylamino)-1-(3-(5-methylthiophene-2-carbonyl)-3,8-diazabicyclo[3.2.1]octan-8-yl)but-2-en-1-one]
7 | Cc1ccc(C(=O)N2C[C@@H]3C[C@H]2CN3C(=O)/C=C/CN(C)C)s1 [XS190-80, (E)-4-(dimethylamino)-1-((1S,4S)-5-(5-methylthiophene-2-carbonyl)-2,5-diazabicyclo[2.2.1]heptan-2-yl)but-2-en-1-one]
47 | CN(C)C/C=C/C(=O)N1C2CC1CN(C(=O)C1CCCC1)C2 [XS190-128, (E)-1-(3-(cyclopentanecarbonyl)-3,6-diazabicyclo[3.1.1]heptan-6-yl)-4-(dimethylamino)but-2-en-1-one]
100 | Cc1cnc(N2CCN(C(=O)CCl)CC2=O)s1 [XS165-123, 4-(2-chloroacetyl)-1-(5-methylthiazol-2-yl)piperazin-2-one]
78 | CC(=O)N1CCC(c2ccc(C(=O)N3CC4CC(C3)N4C(=O)/C=C/CN(C)C)s2)C1 (stereo not shown) [XS197-71, (E)-1-(3-(5-(1-acetylpyrrolidin-3-yl)thiophene-2-carbonyl)-3,6-diazabicyclo[3.1.1]heptan-6-yl)-4-(dimethylamino)but-2-en-1-one]
<1 | Cc1ccc(N(C)C(=O)CCN(C)C(=O)/C=C/CN(C)C)s1 [XS175-160, (E)-4-(dimethylamino)-N-methyl-N-(3-(methyl(5-methylthiophen-2-yl)amino)-3-oxopropyl)but-2-enamide]
80 | CC(=O)N1CCN(c2ccc(C(=O)N3CC4CC(C3)N4C(=O)/C=C/CN(C)C)s2)CC1 [XS209-184, (E)-1-(3-(5-(4-acetylpiperazin-1-yl)thiophene-2-carbonyl)-3,6-diazabicyclo[3.1.1]heptan-6-yl)-4-(dimethylamino)but-2-en-1-one]
52 | C=CC(=O)N1CCN(c2ccc(C)s2)C(=O)C1 [XS154-91, 4-acryloyl-1-(5-methylthiophen-2-yl)piperazin-2-one]
1 | Cc1ccc(C(=O)N2CCC(NC(=O)/C=C/CN(C)C)CC2)s1 [XS185-65, (E)-4-(dimethylamino)-N-(1-(5-methylthiophene-2-carbonyl)piperidin-4-yl)but-2-enamide]
1 | C=CC(=O)N1CC2CCC(C1)N2c1cccc(C)c1 [XS165-54, 1-(8-(m-tolyl)-3,8-diazabicyclo[3.2.1]octan-3-yl)prop-2-en-1-one]
47 | Cc1ccc(N2CCCN(C(=O)/C=C/CN(C)C)CC2=O)s1 [XS175-120, (E)-4-(4-(dimethylamino)but-2-enoyl)-1-(5-methylthiophen-2-yl)-1,4-diazepan-2-one]
100 | Cc1ccc(NC(=O)C2CN(C(=O)CCl)C2)s1 [XS175-126, 1-(2-chloroacetyl)-N-(5-methylthiophen-2-yl)azetidine-3-carboxamide]
98 | Cc1ccc(N2CC3CCC(C2=O)N3C(=O)C#CC(C)(C)N(C)C)s1 (stereo not shown) [XS209-74, 8-(4-(dimethylamino)-4-methylpent-2-ynoyl)-3-(5-methylthiophen-2-yl)-3,8-diazabicyclo[3.2.1]octan-2-one]
8 | CC(C)C(=O)N1CC2CC(C1)N2C(=O)/C=C/CN(C)C [XS197-50, (E)-4-(dimethylamino)-1-(3-isobutyryl-3,6-diazabicyclo[3.1.1]heptan-6-yl)but-2-en-1-one]
100 | CN(C)C/C=C/C(=O)N1C2CCC1C(=O)N(c1cc3ccccc3s1)C2 (stereo not shown) [XS190-38, (E)-3-(benzo[b]thiophen-2-yl)-8-(4-(dimethylamino)but-2-enoyl)-3,8-diazabicyclo[3.2.1]octan-2-one]
75 | CN(C)C(C)(C)C#CC(=O)N1CC(C(=O)Nc2cc3c(s2)CCCC3)C1 [XS224-109, 1-(4-(dimethylamino)-4-methylpent-2-ynoyl)-N-(4,5,6,7-tetrahydrobenzo[b]thiophen-2-yl)azetidine-3-carboxamide]
